Measurements published in ChEMBL document CHEMBL5247653, “Discovery of Clinical Candidate ACT-777991, a Potent CXCR3 Antagonist for Antigen-Driven and Inflammatory Pathologies” (J Med Chem, 2023).
Activity calls are given as the source filed them. No cut-off for these calls is given here.

Columns and labels:
[1] = target: T1, C-X-C chemokine receptor type 3 (Homo sapiens, UniProt P49682); test: Antagonist activity at human CXCR3 expressed in CHO-K1 cells assessed as reduction in CXCL10 induced calcium flux by FLIPR method; type: cell-based
T1 sequence (P49682 whole entry): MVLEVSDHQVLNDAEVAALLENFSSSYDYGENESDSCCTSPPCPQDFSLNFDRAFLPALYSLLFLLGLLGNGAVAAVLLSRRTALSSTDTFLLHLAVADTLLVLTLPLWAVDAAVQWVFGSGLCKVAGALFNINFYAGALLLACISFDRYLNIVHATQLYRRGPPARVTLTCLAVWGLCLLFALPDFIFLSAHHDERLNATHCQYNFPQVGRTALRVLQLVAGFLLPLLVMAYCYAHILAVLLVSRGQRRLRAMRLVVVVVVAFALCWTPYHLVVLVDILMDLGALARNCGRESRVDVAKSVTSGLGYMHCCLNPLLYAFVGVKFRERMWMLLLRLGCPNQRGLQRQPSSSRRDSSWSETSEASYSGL

[2] = target: fMet-Leu-Phe receptor (Homo sapiens) (UniProt P21462); test: Binding affinity to FPR1 (unknown origin) at 10 uM by radioligand binding assay
[3] = target: T1, C-X-C chemokine receptor type 3; test: Antagonist activity at human CXCR3 expressed in CHO-K1 cells assessed as reduction in CXCL9 induced calcium flux by FLIPR method; type: cell-based
[4] = target: T1, C-X-C chemokine receptor type 3; test: Antagonist activity at human CXCR3 expressed in CHO-K1 cells assessed as reduction in CXCL11 induced calcium flux by FLIPR method; type: cell-based
[5] = Metabolic stability in rat liver microsomes assessed as intrinsic clearance at 1 uM and measured upto 15 mins in presence of NADPH regenerating system by LC-MS/MS analysis; type: ADME, Microsome; settings: read-out: CLH
[6] = Clearance in Wistar rat at 3 mg/kg,iv or 3 mg/kg, po; type: ADME, organism-based; settings: in vivo
[7] = Cmin in LPS-induced DBA/1 mouse plasma at 0.06 microg/g, po bid preincubated for 3 days followed by LPS stimulation for 30 mins and measured after 72 hrs by flow cytometry; type: ADME, organism-based; settings: dose 0.06 µg/g, time 6 day, read-out: Cmin
[8] = Tmax in Cynomolgus monkey at 1.0 mg/kg,iv or 1.25 mg/kg, po; type: ADME, organism-based, Macaca fascicularis; settings: in vivo
[9] = Protein binding in rat plasma assessed as fraction unbound at 20 ug/ml using 14C-labeled ligand by rapid equilibrium dialysis; type: ADME, cell-free; settings: at 20 µg/mL
Cytochrome P450 2D6 = Cytochrome P450 2D6 (Homo sapiens, UniProt P10635); test: Competitive inhibition of CYP2D6 (unknown origin); type: ADME
Cytochrome P450 3A4 [10] = target: T2, Cytochrome P450 3A4 (Homo sapiens, UniProt P08684); test: Competitive inhibition of CYP3A4 (unknown origin); type: ADME
[11] = Oral bioavailability in Cynomolgus monkey at 1.25 mg/kg; type: ADME, organism-based, Macaca fascicularis; settings: in vivo
[12] = Oral bioavailability in Wistar rat at 3 mg/kg; type: ADME, organism-based; settings: in vivo
[13] = Tmax in Wistar rat at 3 mg/kg,iv or 3 mg/kg, po; type: ADME, organism-based; settings: in vivo
[14] = Metabolic stability in dog hepatocyte assessed as M4 metabolite formation at 1 uM and measured upto 15 mins in presence of NADPH regenerating system by LC-MS/MS analysis; type: ADME, cell-based, Canis lupus familiaris; settings: hepatocytes, 0.25 h
[15] = Metabolic stability in human hepatocyte assessed as M4 metabolite formation at 1 uM and measured upto 15 mins in presence of NADPH regenerating system by LC-MS/MS analysis; type: ADME, cell-based; settings: hepatocytes, 0.25 h
[16] = In vivo inhibition of hERG in po dosed dog assessed as increase in QTc interval; type: toxicity, organism-based, Canis lupus familiaris
Cytochrome P450 3A4 [17] = target: T2, Cytochrome P450 3A4; test: Time dependent inhibition of CYP3A4 (unknown origin); type: ADME
[18] = Metabolic stability in rat hepatocyte assessed as M1 metabolite formation at 1 uM and measured upto 15 mins in presence of NADPH regenerating system by LC-MS/MS analysis; type: ADME, cell-based; settings: hepatocytes, 0.25 h
[19] = Unbound clearance in Beagle dog plasma at 1 mg/kg, iv; type: ADME, organism-based, Canis lupus familiaris; settings: in vivo
[20] = target: ATP-dependent translocase ABCB1 (Homo sapiens, UniProt P08183); test: Inhibition of human P-gp in dog MDCKII-MDR1 cells; type: ADME, cell-based
[21] = Half life in Beagle dog at 2.5 mg/kg,iv or 2.5 mg/kg, po; type: ADME, organism-based, Canis lupus familiaris; settings: in vivo
[22] = Protein binding in rabbit plasma assessed as fraction unbound at 0.1 to 300 ug/ml using 14C-labeled ligand by rapid equilibrium dialysis; type: ADME, cell-free, Oryctolagus cuniculus; settings: at 0.1 to 300 µg/mL, dose 0.1-300 µg/ml
[23] = Metabolic stability in rat hepatocyte assessed as M3 metabolite formation at 1 uM and measured upto 15 mins in presence of NADPH regenerating system by LC-MS/MS analysis; type: ADME, cell-based; settings: hepatocytes, 0.25 h
[24] = Genotoxicity in Salmonella typhimurium TA98 at 5000 ug in presence of S9 fraction; type: toxicity, subcellular, Salmonella enterica subsp. enterica serovar Typhimurium; settings: dose 5000 µg
[25] = Protein binding in dog plasma assessed as fraction unbound at 0.1 to 300 ug/ml using 14C-labeled ligand by rapid equilibrium dialysis; type: ADME, cell-free, Canis lupus familiaris; settings: at 0.1 to 300 µg/mL, dose 0.1-300 µg/ml
[26] = target: C-X-C chemokine receptor type 3 (Rattus norvegicus, UniProt Q9JII9); test: Antagonist activity at rat CXCR3 expressed in CHO-K1 cells assessed as reduction in CXCL10 induced calcium flux by FLIPR method; type: cell-based
[27] = target: T1, C-X-C chemokine receptor type 3; test: Binding affinity to human CXCR3 expressed in CHO-K1 cell membrane assessed as dissociation constant using tritium-labeled ligand by […] assay; type: cell membranes
CYP2D6 = CYP2D6 (Homo sapiens, UniProt P10635); test: […] recombinant human CYP2D6 mediated drug metabolism in human liver microsomes assessed as intrinsic clearance at 1 uM incubated for 45 mins in presence of NADPH regenerating system by LC-MS/MS analysis; type: ADME, Microsome; settings: recombinant human CYP2D6, read-out: CLH
[28] = target: C-C chemokine receptor type 5 (Homo sapiens) (UniProt P51681); test: Binding affinity to CCR5 (unknown origin) at 10 uM by radioligand binding assay
[29] = Unbound clearance in Wistar rat plasma at 0.5 mg/kg, iv; type: ADME, organism-based; settings: in vivo
[30] = AUC (0 to last) in Cynomolgus monkey at 1.0 mg/kg,iv or 1.25 mg/kg, po; type: ADME, organism-based, Macaca fascicularis; set-up: dose 1 mg/kg, route iv; settings: in vivo
[31] = Dissociation constant, pKa of compound; type: physicochemical
[32] = Cmax in Cynomolgus monkey at 1.0 mg/kg,iv or 1.25 mg/kg, po; type: ADME, organism-based, Macaca fascicularis; set-up: dose 1 mg/kg, route iv; settings: in vivo
[33] = In vivo inhibition of hERG in dog assessed as increase in QTc interval at 24 ug/ml, iv; type: toxicity, organism-based, Canis lupus familiaris; settings: at 24 µg/mL
[34] = Protein binding in mouse plasma assessed as fraction unbound at 20 ug/ml using 14C-labeled ligand by rapid equilibrium dialysis; type: ADME, cell-free; settings: at 20 µg/mL
[35] = Drug excretion in urine of Wistar rat assessed as unchanged drug at 1 mg/kg, iv; type: ADME, organism-based; settings: read-out: Drug excretion

T2 sequence (P08684 whole entry): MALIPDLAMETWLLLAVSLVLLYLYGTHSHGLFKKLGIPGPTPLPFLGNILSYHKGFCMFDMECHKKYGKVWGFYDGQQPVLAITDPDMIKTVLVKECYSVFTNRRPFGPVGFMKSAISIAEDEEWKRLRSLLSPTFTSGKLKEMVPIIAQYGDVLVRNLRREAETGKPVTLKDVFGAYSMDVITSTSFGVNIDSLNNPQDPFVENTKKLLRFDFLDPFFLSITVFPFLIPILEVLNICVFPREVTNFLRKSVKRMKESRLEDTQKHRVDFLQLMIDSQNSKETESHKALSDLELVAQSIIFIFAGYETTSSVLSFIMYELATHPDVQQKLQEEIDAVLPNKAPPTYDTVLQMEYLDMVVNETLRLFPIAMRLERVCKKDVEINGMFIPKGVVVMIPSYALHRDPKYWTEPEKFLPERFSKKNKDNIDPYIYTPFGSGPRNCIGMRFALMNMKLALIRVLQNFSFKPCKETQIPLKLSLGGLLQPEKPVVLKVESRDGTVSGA
Chain of fMet-Leu-Phe receptor (Homo sapiens) (P21462 whole entry): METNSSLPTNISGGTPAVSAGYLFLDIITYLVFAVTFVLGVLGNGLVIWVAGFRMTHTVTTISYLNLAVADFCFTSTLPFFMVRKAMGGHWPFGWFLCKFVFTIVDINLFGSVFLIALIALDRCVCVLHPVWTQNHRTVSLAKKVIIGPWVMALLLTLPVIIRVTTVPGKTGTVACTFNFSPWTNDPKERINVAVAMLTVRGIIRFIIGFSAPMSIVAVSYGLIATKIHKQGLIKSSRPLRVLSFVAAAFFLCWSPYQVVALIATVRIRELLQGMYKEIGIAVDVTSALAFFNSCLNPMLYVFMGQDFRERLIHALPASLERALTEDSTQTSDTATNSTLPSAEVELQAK
Chain of Cytochrome P450 2D6 (P10635 whole entry): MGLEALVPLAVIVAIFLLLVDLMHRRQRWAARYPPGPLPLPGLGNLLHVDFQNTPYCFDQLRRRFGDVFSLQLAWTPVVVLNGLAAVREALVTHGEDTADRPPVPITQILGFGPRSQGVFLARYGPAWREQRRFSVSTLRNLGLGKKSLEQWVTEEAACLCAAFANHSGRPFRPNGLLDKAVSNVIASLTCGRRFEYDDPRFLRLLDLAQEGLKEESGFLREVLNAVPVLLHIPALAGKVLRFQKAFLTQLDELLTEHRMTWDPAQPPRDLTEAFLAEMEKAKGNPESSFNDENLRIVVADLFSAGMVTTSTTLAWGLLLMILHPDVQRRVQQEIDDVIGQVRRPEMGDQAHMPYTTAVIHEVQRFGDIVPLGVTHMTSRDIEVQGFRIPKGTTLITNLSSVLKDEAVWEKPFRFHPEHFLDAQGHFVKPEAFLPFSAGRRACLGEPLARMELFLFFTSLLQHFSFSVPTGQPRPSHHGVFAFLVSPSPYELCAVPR
Chain of CYP2D6 (P10635 whole entry): as above
Chain of C-C chemokine receptor type 5 (Homo sapiens) (P51681 whole entry, looked up): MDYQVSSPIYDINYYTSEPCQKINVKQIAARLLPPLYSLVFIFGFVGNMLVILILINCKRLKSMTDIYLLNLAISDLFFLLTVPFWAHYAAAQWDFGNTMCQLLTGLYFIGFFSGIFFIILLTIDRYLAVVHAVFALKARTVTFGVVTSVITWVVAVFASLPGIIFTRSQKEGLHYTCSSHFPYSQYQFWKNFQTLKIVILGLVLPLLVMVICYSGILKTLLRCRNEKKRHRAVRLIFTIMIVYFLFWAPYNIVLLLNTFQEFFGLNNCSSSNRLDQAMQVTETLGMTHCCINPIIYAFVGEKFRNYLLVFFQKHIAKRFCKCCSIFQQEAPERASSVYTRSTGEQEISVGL
Chain of ATP-dependent translocase ABCB1 (P08183 whole entry): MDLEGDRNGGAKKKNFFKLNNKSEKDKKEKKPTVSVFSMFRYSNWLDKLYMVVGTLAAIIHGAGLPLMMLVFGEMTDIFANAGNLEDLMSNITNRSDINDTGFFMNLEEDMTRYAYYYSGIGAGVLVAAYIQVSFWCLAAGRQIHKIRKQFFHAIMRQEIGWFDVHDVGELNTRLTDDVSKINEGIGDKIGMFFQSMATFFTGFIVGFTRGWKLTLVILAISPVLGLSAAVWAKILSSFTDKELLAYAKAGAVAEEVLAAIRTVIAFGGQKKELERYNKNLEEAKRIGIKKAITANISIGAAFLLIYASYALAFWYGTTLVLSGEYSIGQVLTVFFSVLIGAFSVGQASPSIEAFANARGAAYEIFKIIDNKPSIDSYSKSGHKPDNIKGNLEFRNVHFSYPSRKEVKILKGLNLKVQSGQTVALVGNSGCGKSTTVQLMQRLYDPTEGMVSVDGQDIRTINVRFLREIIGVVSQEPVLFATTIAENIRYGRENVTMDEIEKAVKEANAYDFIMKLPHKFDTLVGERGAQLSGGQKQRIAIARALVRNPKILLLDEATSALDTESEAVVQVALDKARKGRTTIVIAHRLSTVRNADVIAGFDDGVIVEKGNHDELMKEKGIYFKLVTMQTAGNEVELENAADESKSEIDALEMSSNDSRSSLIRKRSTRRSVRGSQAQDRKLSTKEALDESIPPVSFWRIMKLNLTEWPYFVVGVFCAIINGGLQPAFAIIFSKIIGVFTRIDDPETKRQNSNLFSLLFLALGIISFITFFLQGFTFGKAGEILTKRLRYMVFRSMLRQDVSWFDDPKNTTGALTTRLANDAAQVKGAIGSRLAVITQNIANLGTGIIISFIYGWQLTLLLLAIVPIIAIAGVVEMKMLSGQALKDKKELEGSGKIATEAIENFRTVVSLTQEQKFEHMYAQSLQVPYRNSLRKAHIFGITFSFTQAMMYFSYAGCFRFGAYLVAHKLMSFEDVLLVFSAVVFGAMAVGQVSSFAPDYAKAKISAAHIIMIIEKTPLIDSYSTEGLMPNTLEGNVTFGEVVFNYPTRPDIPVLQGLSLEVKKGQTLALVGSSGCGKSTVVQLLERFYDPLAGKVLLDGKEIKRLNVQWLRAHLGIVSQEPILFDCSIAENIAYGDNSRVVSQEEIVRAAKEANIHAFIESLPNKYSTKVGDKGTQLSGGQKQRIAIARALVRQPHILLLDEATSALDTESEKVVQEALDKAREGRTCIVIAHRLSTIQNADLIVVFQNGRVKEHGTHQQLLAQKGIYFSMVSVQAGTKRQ
Chain of C-X-C chemokine receptor type 3 (Rattus norvegicus, UniProt Q9JII9) (Q9JII9 whole entry): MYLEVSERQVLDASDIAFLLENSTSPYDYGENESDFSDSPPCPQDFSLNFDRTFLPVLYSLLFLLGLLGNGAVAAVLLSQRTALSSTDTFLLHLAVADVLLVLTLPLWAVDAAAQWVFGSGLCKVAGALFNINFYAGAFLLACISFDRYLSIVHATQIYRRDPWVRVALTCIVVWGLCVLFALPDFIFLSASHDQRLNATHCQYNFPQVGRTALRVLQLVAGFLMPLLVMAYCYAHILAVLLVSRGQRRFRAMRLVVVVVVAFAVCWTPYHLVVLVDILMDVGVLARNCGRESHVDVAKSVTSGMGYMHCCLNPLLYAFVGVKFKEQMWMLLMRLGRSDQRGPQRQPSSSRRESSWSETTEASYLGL

Cc1ncn(CC(=O)N2CCN(c3sc(C(F)(F)F)nc3-c3cnc(C(F)(F)F)nc3)C[C@H]2CCO)n1
IC50 [1]: 3.2 nM | Activity [2]: inactive | IC50 [3]: 3.3 nM | IC50 [4]: 5.3 nM | microsomal CLint at 1 µM [5]: < 10 µL/min/mg | clearance [6]: 0.57 L/h/kg | concentration at 72 h [7]: 0.267 µg/mL | Tmax [8]: 1.5 h | fraction unbound at 20 ug/ml [9]: 0.12 | IC50 (Cytochrome P450 2D6): > 50000 nM | IC50 (Cytochrome P450 3A4 [10]): > 50000 nM | bioavailability [11]: 92% | bioavailability [12]: 80% | Tmax [13]: 0.5 h | Stability [14]: Unstable | Stability [15]: Unstable | inhibition (INH) [16]: Toxic | IC50 (Cytochrome P450 3A4 [17]): > 50000 nM | Stability [18]: Unstable | CL free [19]: 0.9 L/h/kg | inhibition (INH) [20]: Not Active | half-life [21]: 5.3 h | fraction unbound [22]: 0.1 | Stability [23]: Unstable | Activity [24]: Non-Toxic | fraction unbound [25]: 0.48 | IC50 [26]: 2.2 nM | Kd [27]: 4.6 nM | microsomal CLint at 1 µM (CYP2D6): < 0.04 µL/min/mg | Activity [28]: inactive | CL free [29]: 9.36 L/h/kg | AUC(0-t) [30]: 3.61 µg·h/mL | pKa [31]: 2.2 | Cmax [32]: 0.735 µg/mL | inhibition (INH) [33]: Toxic | fraction unbound at 20 ug/ml [34]: 0.1 | dose excreted [35]: 4.4%
